From PMC4941420, “A Rational Approach for the Identification of Non-Hydroxamate HDAC6-Selective Inhibitors” (Scientific Reports, 2016)

Columns and labels:
[1] = test system: α-tubulin acetylation in HeLa cells; assay: Acetyl-α-tubulin sandwich ELISA in HeLa cells; assay type: cell-based, human; conditions: 48 h
Protocol: The acetyl-α-tubulin sandwich ELISA Kit (Pathscan® #7204, Cell Signalling) was used to determine tubulin acetylation levels, and Western blotting was used to evaluate histone H4 acetylation, both methods applied to lysates of treated and non-treated HeLa cells (ATCC CCL-2). Cells were cultured in DMEM medium, 4.5 g/L glucose, L-glutamine (Invitrogen), supplemented with 10% heat-inactivated fetal bovine serum (FBS, Biowest), 100 units/mL penicillin, and 100 μg/mL streptomycin, and 1% non-essential amino acids (Invitrogen) at 37 °C with 5% CO2. Prior to ELISA experiments, cells were seeded into 6-well plates at 150,000 cells/well and transfected with the HDAC6-GFP construct (pEGFP.N1-HDAC6, Addgene)[58], using the Lipofectamine 2000 reagent (Invitrogen). Cells were then treated with test compounds, standards or vehicle (0.5% DMSO in culture medium) for 48 h. After the incubation time, cells were washed with cold DPBS (Invitrogen) and lysates were obtained by recovering cells in cold lysis buffer provided in the ELISA kit, supplemented with a protease inhibitor tablet (SigmaFast, Sigma Aldrich). Briefly, cells were harvested in DPBS and centrifuged. The cell pellet was suspended in 100 μL lysis buffer, vortexed, and kept on melting ice for 30 min. Lysates were then obtained by recovering the supernatant after a centrifugation step of 10 min at 11,000 g, 4 °C. Protein concentration was determined by fluorimetry using the Qubit protein assay kit (Invitrogen). Cell lysates were tested at 1 mg/mL following the instructions provided by the ELISA kit manufacturer. For the Western blotting, cells were seeded into 100 mm Petri dishes and treated for 6 h. After the incubation time, cells were washed with cold DPBS (Invitrogen) supplemented with a protease inhibitor tablet (Sigma Fast, Sigma Aldrich), and lysates were obtained by recovering cells in 100 μL cold lysis buffer (10 mM Hepes pH 7.9, 1.5 mM MgCl2, 10 mM KCl, 0.5 mM DTT, 1.5 mM PMSF, 0.2M HCl) the same way as described above. […]

[2] = Solubility remarks during testing; assay type: physicochemical; conditions: concentrations higher than 500 μM cannot be tested
HDAC6 = target: T1, HDAC6 (Homo sapiens, UniProt Q9UBN7); assay: In vitro enzymatic assay HDAC6 (Fluor de Lys); assay type: biochemical
T1 construct: purchased Sigma Aldrich or Reaction Biology Corporation
T1 sequence (Q9UBN7 1-1215): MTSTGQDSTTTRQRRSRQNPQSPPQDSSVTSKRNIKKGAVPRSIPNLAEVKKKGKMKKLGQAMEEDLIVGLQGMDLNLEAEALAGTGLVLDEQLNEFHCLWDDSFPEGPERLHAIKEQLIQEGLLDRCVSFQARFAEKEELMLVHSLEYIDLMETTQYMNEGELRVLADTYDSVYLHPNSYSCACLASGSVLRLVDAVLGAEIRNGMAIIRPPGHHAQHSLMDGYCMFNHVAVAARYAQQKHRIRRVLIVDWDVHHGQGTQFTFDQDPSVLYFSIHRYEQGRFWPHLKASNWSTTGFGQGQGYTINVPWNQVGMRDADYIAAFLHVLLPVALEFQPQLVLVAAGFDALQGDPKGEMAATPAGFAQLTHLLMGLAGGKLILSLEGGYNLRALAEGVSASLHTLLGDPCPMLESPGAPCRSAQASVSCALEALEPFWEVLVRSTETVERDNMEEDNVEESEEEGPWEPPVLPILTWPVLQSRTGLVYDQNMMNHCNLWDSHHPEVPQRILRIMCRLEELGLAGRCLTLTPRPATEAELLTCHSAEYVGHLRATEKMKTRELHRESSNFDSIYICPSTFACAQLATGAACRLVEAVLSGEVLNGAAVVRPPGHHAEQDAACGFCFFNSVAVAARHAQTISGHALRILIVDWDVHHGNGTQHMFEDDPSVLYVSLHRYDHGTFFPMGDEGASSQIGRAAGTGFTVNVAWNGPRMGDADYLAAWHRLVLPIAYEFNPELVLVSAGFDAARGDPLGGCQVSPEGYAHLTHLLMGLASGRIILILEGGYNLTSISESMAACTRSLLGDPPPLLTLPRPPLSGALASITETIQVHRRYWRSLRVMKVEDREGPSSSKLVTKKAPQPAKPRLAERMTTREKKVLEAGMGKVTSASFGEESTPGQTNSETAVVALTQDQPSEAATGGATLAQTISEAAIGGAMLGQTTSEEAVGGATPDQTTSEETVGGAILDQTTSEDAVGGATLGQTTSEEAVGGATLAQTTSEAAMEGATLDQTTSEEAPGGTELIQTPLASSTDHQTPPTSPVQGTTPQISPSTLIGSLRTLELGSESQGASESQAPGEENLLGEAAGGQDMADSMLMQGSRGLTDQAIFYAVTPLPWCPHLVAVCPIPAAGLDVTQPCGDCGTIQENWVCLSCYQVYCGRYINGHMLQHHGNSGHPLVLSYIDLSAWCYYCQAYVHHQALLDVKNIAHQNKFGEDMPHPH

Cytotoxicity XTT, HeLa = assay type: cell-based, human; conditions: human, HeLa cells, mean ± SD of 3 independent experiments in triplicate, read-out: cytotoxic IC50 HeLa
Protocol: (§1) HeLa and HEK 293 cells (ATCC CRL-1573) were cultured as described above and seeded into 96-well plates at 400 cells/well. Test and standard compounds were added to plate wells in triplicate (0.05% DMSO in culture medium) in a range of six concentrations. Following 72 h of incubation, […] of an activated XTT solution was added to the cells (1 mg/mL). The absorbance was measured at 450 nm after 2 h incubation at 37 °C. The growth of the compound-treated cells was compared with the growth of vehicle-treated control cells. IC50 values were calculated with GraphPad Prism 6.0.

HDAC4 = target: T2, HDAC4 (Homo sapiens, UniProt P56524); assay: In vitro enzymatic assay HDAC4 (Fluor de Lys); assay type: biochemical; conditions: average of at least 2 independent experiments in duplicates ± SEM
T2 construct: purchased Sigma Aldrich or Reaction Biology Corporation

[3] = Cytotoxicity XTT, HEK 293; assay type: cell-based; conditions: human, HEK 293 cells (ATCC CRL-1573), mean ± SD of 3 independent experiments in triplicate, read-out: cytotoxic IC50 HEK 293
Protocol: as §1

T2 sequence (P56524 whole entry): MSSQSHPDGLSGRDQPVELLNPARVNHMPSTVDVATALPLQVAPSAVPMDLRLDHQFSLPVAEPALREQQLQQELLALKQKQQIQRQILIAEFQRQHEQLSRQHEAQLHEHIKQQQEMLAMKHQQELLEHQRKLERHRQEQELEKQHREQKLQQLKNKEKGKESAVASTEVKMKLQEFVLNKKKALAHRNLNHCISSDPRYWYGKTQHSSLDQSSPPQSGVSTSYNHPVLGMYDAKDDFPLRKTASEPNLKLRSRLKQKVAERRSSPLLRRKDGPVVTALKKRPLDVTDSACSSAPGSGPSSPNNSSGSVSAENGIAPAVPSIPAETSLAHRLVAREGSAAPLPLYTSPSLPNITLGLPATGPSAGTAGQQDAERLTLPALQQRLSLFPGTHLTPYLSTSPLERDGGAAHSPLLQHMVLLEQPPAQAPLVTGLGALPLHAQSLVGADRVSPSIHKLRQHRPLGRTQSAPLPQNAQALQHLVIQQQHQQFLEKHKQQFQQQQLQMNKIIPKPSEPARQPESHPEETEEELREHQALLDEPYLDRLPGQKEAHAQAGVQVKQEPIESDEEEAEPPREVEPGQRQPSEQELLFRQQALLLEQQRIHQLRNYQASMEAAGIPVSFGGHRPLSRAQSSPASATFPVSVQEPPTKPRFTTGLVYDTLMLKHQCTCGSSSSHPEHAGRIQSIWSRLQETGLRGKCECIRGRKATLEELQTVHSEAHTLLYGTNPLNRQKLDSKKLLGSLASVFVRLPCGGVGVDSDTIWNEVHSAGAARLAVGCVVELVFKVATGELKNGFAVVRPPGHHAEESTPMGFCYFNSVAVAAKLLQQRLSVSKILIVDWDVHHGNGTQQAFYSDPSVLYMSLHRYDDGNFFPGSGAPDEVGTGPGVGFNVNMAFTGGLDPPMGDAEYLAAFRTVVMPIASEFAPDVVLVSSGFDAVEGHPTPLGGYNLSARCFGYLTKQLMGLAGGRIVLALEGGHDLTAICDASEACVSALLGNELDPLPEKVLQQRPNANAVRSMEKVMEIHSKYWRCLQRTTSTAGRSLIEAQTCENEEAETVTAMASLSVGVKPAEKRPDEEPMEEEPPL

NNC(=O)c1ccc(COc2ccccc2Cl)cc1 [AK-14]
acetylated tubulin levels ([1]; 250 μM): less remarkable effect
acetylated tubulin levels ([1]; 500 μM): significantly increase
solubility remark in HeLa cell assay [2]: solubility issues
IC50 (HDAC6; average of at least 2 independent experiments in duplicates ± SEM): 12.8 ± 5.4 µM
inhibition at 100 µM (HDAC6; read-out: HDAC6 % of inhibition at 100 µM): 70.7 ± 6%
IC50 at 72 h (Cytotoxicity XTT, HeLa): 299 ± 56.1 µM
IC50 (HDAC4): > 300 µM
IC50 at 72 h [3]: 34.5 ± 4.8 µM
